Measurements as given in paper PMC10460880, “Cathepsin K‐Activated Probe for Fluoro‐Photoacoustic Imaging of Early Osteolytic Metastasis” (Advanced Science, 2023).

How the values were obtained:
[1] = tested on: CTSK + 2-CP; CTSB, FAP-α, Casp-3, APN, GGT, ALP, ACE, trypsin; assay: Selectivity study: fluorescence activation with inhibited CTSK or other proteases; type: biochemical; settings: probe 10 μM, 1 h; 2-CP 50 mM pre-treatment 30 min; n = 3
Method: In vitro analysis of cathepsin K (CTSK) activation, selectivity, and sensitivity studies.
Probe CTSK-APPA, D-CTSK-APPA, or CTSK-APP (10 μM) was incubated with CTSK in MES buffer (50 mM, pH 6.0) containing 0.1% DMSO, 2 mM ethylene diamine tetraacetic acid (EDTA), 4 mM dithiothreitol (DTT) and 0.15% chondroitin sulfate (CS) at 37 °C for 1 h. After incubation at the indicated time, UV-Vis spectra, fluorescence spectra, fluorescence images, and PA images of the solutions were recorded. Probe CyP (10 μM) incubated with CTSK (200 ng/mL) for 1 h was further analyzed by HPLC. For selectivity study, CTSK-APPA (10 μM) in a 96-well plate was incubated with CTSK (100 ng/mL), CTSB (100 ng/mL), FAP-α (9×10-4 U/mL), Caspase-3 (100 ng/mL), APN (100 ng/mL), GGT (0.1 U/mL), ALP (0.1 U/mL), ACE (1×10-3 U/mL), and trypsin (10 U/L) at […] for 1 h. For the inhibitory experiment, CTSK (100 ng/mL) was treated with CTSK inhibitor 2-Cyanopyrimidine (2-CP, 50 mM) at 37°C for 30 min. […]
Kinetic assay. […] Fluorescence intensities of solution were measured for quantification analyses by a microplate reader (BioTek, Synergy 2) with excitation at 690 nm and emission at 720 nm. The kinetic parameters were calculated according to the Michaelis-Menten equation shown below: V = Vmax×[S]/(Km + [S]), where V is initial velocity, and [S] is substrate concentration. […]

[2] = Bone marrow toxicity analysis (blood RBC and WBC counts); type: in vivo, BALB/c nude mice; settings: i.v. 50 μM, 200 μL; blood 24 h post-injection; n = 3
Method: Bone marrow toxicity analysis. The bone marrow toxicity of CTSK-APPA and CTSK-APP was assessed by blood analyses in mice. SPF grade 4-week-old BALB/c nude mice were intravenously injected with CTSK-APPA(50 μM, 200 μL) or saline (200 μL). The blood samples were collected in anticoagulant tubes at 24 h post-injection and stored at 4°C. The red blood count (RBC) and white blood count (WBC) were further measured.
Renal clearance efficiency studies. SPF grade 4-week-old BALB/c nude mice were intravenously injected with CTSK-APPA or CTSK-APP (50 μM, 200 μL) and placed in metabolic cages. The urine was collected at 3, 6, and 24 h post-injection, and then centrifuged at 5000 r.p.m. for 5 min. The supernatants containing excreted probes were quantified by using a UV-vis absorption spectrometer. […]
In vivo Bioluminescence, DR, CT, and MR imaging. […] Then BL imaging was recorded on an IVIS Spectrum imaging system at 10 min post-injection under anesthesia using isoflurane. All data were analyzed with the Living Image software. DR, CT, and MR imaging were recorded on an IVIS Spectrum imaging system, a single-photon emission computed tomography imaging system, and a preclinical magnetic resonance solution system, respectively.
Real-time tumor imaging. […] Fluorescence and PA images were acquired at 0, 1, 2, 4, 8, 12, and 24 h post-injection. […]
Histology. […] Images were captured by using a fluorescence microscope. […]

[3] = tested on: BMMs, MDA-MB-231 cells, MCF-7 cells, neutrophils; assay: Cell selectivity experiment, other cells; type: cell-based; settings: MDA-MB-231, MCF-7, neutrophils, n = 3
OCs = assay: Cell selectivity experiment, osteoclasts; type: cell-based; settings: n = 3

## Cbz‐Leu‐Arg‐OH [CTSK-APPA]
[1]
  fluorescence activation at 720 nm by CTSK with inhibitor 2-CP or by other proteases: almost no fluorescence activation
[2]
  red blood cell (RBC) and white blood cell (WBC) counts vs saline group: No apparent differences
[3]
  NIR fluorescence activation by other cells: did not induce NIR fluorescence activation
OCs
  NIR fluorescence after incubation with OCs: strong NIR fluorescence signals
